The subject of experiment [1] is Plasmodium falciparum strain NF54. Put plainly: Growth inhibition of Plasmodium falciparum NF54 (chloroquine-sensitive) in vitro, [G-3H]-hypoxanthin incorporation. It is filed as cell-based. The following applies: chloroquine-sensitive strain NF54, 72 h, read-out: IC50 for P. falciparum NF54. In short, it runs like this: (§1)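 Asynchronous intraerythrocytic cultures in human A+ erythrocytes (0.7% parasitemia, 2.5% suspension) in RPMI 1640 with HEPES, NaHCO3 and human serum, exposed to compound titrated over 6-7 steps for 72 h at 37° C, 3% O2. Growth by [G-3H]-hypoxanthin incorporation against untreated controls; IC50 by logit regression.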

A further experiment has as its system Plasmodium falciparum K1. The experiment is described as follows: Growth inhibition of Plasmodium falciparum K1 (chloroquine-resistant) in vitro, [G-3H]-hypoxanthin incorporation. It counts as cell-based, Plasmodium falciparum (strain K1). The following applies: for IC50: Plasmodium falciparum, K1, 72 h, read-out: IC50 for P. falciparum K1; for Resistance index: ratio of the IC50 for K1 and the IC50 for NF54. An outline of the steps:
as §1

Another experiment has as its system Plasmodium berghei. Put plainly: animal or person. It is filed as in vivo, Plasmodium berghei (strain ANKA) in mice. The following applies: Plasmodium berghei, mice, blood smears 48 h after treatment. In short, it runs like this:
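Male albino mice (~25 g) infected i.v. on D0 with P. berghei ANKA (0.2 ml of 10^8 parasitized erythrocytes/ml); single s.c. and p.o. dose 24 h post-infection, 10 mg/kg screen then titration.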

The mark [2] stands for this setting: po, single peroral dose of 10 mg/kg, read-out: Growth inhibition in % after po administration (GI%, percentage reduction of the parasitemia).
Where [3] appears, read: sc, single subcutaneous dose of 10 mg/kg, read-out: Growth inhibition in % after sc administration (GI%, percentage reduction of the parasitemia).

Where a name gives a salt, the structure may show the parent alone. Read-outs that look alike come from different tables or passages of the source.

By IC50 is commonly meant the concentration that gives 50% inhibition. Regarding `COc1cccc(CNC(C)(C)CNc2ccnc3cc(Cl)ccc23)c1O.Cl.Cl` [Example 30, N1-(7-Chloro-quinolin-4-yl)-N2-(2-hydroxy-3-methoxy-benzyl)-2-methyl-propane-1,2-diamine dihydrochloride], the IC50 in experiment [1] turned out to be 0.0067 µg/mL; with Plasmodium falciparum K1, 0.0114 µg/mL. In addition, the Resistance index in the experiment on Plasmodium falciparum K1 turned out to be 1.7. For the same compound, the values for the inhibition in vivo at 10 mg/kg with Plasmodium berghei (setting [2]) and in the experiment with Plasmodium berghei (setting [3]) were 70% and 95%, respectively.
For `COc1ccc(O)c(CNC(C)(C)CNc2ccnc3cc(Cl)ccc23)c1.Cl.Cl` [Example 31, N1-(7-Chloro-quinolin-4-yl)-N2-(2-hydroxy-5-methoxy-benzyl)-2-methyl-propane-1,2-diamine dihydrochloride], the figures for the IC50 (in experiment [1]; in the experiment with Plasmodium falciparum K1) were 0.0065 µg/mL and 0.0099 µg/mL, respectively. The Resistance index with Plasmodium falciparum K1 was 1.5. The inhibition in vivo at 10 mg/kg in the experiment with Plasmodium berghei (setting [2]) was 39%; in the experiment with Plasmodium berghei (setting [3]), 98%.
For `COc1cc(CNC(C)(C)CNc2ccnc3cc(Cl)ccc23)ccc1O.Cl.Cl` [Example 33, N1-(7-Chloro-quinolin-4-yl)-N2-(4-hydroxy-3-methoxy-benzyl)-2-methyl-propane-1,2-diamine dihydrochloride] the same measures were 0.0063 µg/mL, 0.0071 µg/mL, 1.1, 10% and 97%.
For `COc1cc(CNC(C)(C)CNc2ccnc3cc(Cl)ccc23)cc(OC)c1.Cl.Cl` [Example 40, N1-(7-Chloro-quinolin-4-yl)-N2-(3,5-dimethoxy-benzyl)-2-methyl-propane-1,2-diamine dihydrochloride] the same measures were 0.0036 µg/mL, 0.0071 µg/mL, 2.0, 84% and 95%.
Regarding `CC(C)(CNc1ccnc2cc(Cl)ccc12)NCc1ccc(Oc2ccccc2)cc1.Cl.Cl` [Example 43, N1-(7-Chloro-quinolin-4-yl)-N2-(4-phenoxy-benzyl)-2-methyl-propane-1,2-diamine dihydrochloride], the IC50 in experiment [1] was 0.016 µg/mL; in the experiment on Plasmodium falciparum K1, 0.0181 µg/mL. In addition, the Resistance index in the experiment with Plasmodium falciparum K1 is listed as 1.1. The inhibition in vivo at 10 mg/kg with Plasmodium berghei (setting [2]) stood at 30%; in the experiment on Plasmodium berghei (setting [3]), 98%.
In the case of `CSc1ccc(CNC(C)(C)CNc2ccnc3cc(Cl)ccc23)cc1.Cl.Cl` [Example 44, N1-(7-Chloro-quinolin-4-yl)-N2-(4-methylsulphanyl-benzyl)-2-methyl-propane-1,2-diamine dihydrochloride], the IC50 was 0.0108 µg/mL in experiment [1] and 0.0154 µg/mL in the experiment on Plasmodium falciparum K1. Also, the Resistance index in the experiment on Plasmodium falciparum K1 is 1.4. Also, the results for the inhibition in vivo at 10 mg/kg in the experiment with Plasmodium berghei (setting [2]) and in the experiment on Plasmodium berghei (setting [3]) were 98% and 99%, respectively.
As to `CN(C)c1ccc(CNC(C)(C)CNc2ccnc3cc(Cl)ccc23)cc1.Cl.Cl` [Example 45, N1-(7-Chloro-quinolin-4-yl)-N2-(4-dimethylamino-benzyl)-2-methyl-propane-1,2-diamine dihydrochloride], the values for the IC50 (in experiment [1]; in the experiment on Plasmodium falciparum K1) were 0.0123 µg/mL and 0.0125 µg/mL, respectively. Moreover, the Resistance index in the experiment on Plasmodium falciparum K1 is listed as 1.0. In addition, the values for the inhibition in vivo at 10 mg/kg in the experiment with Plasmodium berghei (setting [2]) and in the experiment on Plasmodium berghei (setting [3]) were 98% and 97%, respectively.
The matching figures for `CCN(CC)c1ccc(CNC(C)(C)CNc2ccnc3cc(Cl)ccc23)cc1.Cl.Cl.Cl` [Example 46, N1-(7-Chloro-quinolin-4-yl)-N2-(4-diethylamino-benzyl)-2-methyl-propane-1,2-diamine trihydrochloride]: 0.0101 µg/mL, 0.0126 µg/mL, 1.2, 99.7% and 99%.
In the case of `CC(C)(CNc1ccnc2cc(Cl)ccc12)NCc1ccc([N+](=O)[O-])cc1` [Example 47, N1-(7-Chloro-quinolin-4-yl)-N2-(4-nitro-benzyl)-2-methy-propane-1,2-diamine dihydrochloride], the IC50 in experiment [1] was 0.0094 µg/mL; with Plasmodium falciparum K1 it was 0.0136 µg/mL. Further, in the experiment with Plasmodium falciparum K1, the Resistance index came to 1.4. The inhibition in vivo at 10 mg/kg is 70% in the experiment on Plasmodium berghei (setting [2]) and 79% in the experiment on Plasmodium berghei (setting [3]).
On to `CC(C)(CNc1ccnc2cc(Cl)ccc12)NCc1cccc(C#N)c1.Cl.Cl` [Example 48, N1-(7-Chloro-quinolin-4-yl)-N2-(3-cyano-benzyl)-2-methyl-propane-1,2-diamine dihydrochloride], for which the IC50 worked out at 0.0123 µg/mL in experiment [1] and 0.0159 µg/mL with Plasmodium falciparum K1. The Resistance index with Plasmodium falciparum K1 is on record as 1.3. In addition, the inhibition in vivo at 10 mg/kg in the experiment with Plasmodium berghei (setting [2]) and with Plasmodium berghei (setting [3]) was 99.9% each time.
`CC(C)(CNc1ccnc2cc(Cl)ccc12)NCc1ccc(C#N)cc1.Cl.Cl` [Example 49, N1-(7-Chloro-quinolin-4-yl)-N2-(4-cyano-benzyl)-2-methyl-propane-1,2-diamine dihydrochloride]: the IC50 in experiment [1] worked out at 0.0082 µg/mL; in the experiment on Plasmodium falciparum K1, 0.0124 µg/mL. For the same compound, in the experiment with Plasmodium falciparum K1, the Resistance index is on record as 1.5. Further, the inhibition in vivo at 10 mg/kg in the experiment with Plasmodium berghei (setting [2]) is 88%; with Plasmodium berghei (setting [3]), 87%.
`CC(C)c1ccc(CNC(C)(C)CNc2ccnc3cc(Cl)ccc23)cc1.Cl.Cl` [Example 50, N1-(7-Chloro-quinolin-4-yl)-N2-(4-isopropyl-benzyl)-2-methyl-propane-1,2-diamine dihydrochloride]: the IC50 was 0.0142 µg/mL in experiment [1] and 0.0143 µg/mL in the experiment on Plasmodium falciparum K1. Also, the Resistance index in the experiment on Plasmodium falciparum K1 is on record as 1.0. The results for the inhibition in vivo at 10 mg/kg in the experiment on Plasmodium berghei (setting [2]) and in the experiment on Plasmodium berghei (setting [3]) were 93% and 96%, respectively.
Turning to `CC(C)(CNc1ccnc2cc(Cl)ccc12)NCc1ccc(-c2ccccc2)cc1` [Example 51, N1-(7-Chloro-quinolin-4-yl)-N2-(bipenyl-4-yl-methyl)-2-methyl-propane-1,2-diamine dihydrochloride], the IC50 was 0.0123 µg/mL in experiment [1] and 0.0091 µg/mL with Plasmodium falciparum K1. Also, the Resistance index in the experiment on Plasmodium falciparum K1 was found to be 0.7. Also, the inhibition in vivo at 10 mg/kg in the experiment with Plasmodium berghei (setting [2]) was determined as 82%; with Plasmodium berghei (setting [3]), 99%.
For `CC(C)(CNc1ccnc2cc(Cl)ccc12)NCc1ccccn1.Cl.Cl.Cl` [Example 56, N1-(7-Chloro-quinolin-4-yl)-N2-(pyridin-2-yl-methyl)-2-methyl-propane-1,2-diamine trihydrochloride] the same measures were 0.0313 µg/mL, 0.0537 µg/mL, 1.7, 98% and 97%.
For `CC(C)(CNc1ccnc2cc(Cl)ccc12)NCc1cccnc1.Cl.Cl.Cl` [Example 57, N1-(7-Chloro-quinolin-4-yl)-N2-(pyridin-3-yl-methyl)-2-methyl-propane-1,2-diamine trihydrochloride] the same measures were 0.0217 µg/mL, 0.0282 µg/mL, 1.3, 99.4% and 99.7%.
The matching figures for `CC(C)(CNc1ccnc2cc(Cl)ccc12)NCc1ccnc2ccccc12.Cl.Cl.Cl` [Example 58, N1-(7-Chloro-quinolin-4-yl)-N2-(quinolin-4-yl-methyl)-2-methyl-propane-1,2-diamine trihydrochloride]: 0.0293 µg/mL, 0.069 µg/mL, 2.4, 72% and 88%.
For `Cl.Cl.Clc1ccc2c(N[C@H]3CCCC[C@@H]3NCc3ccccc3)ccnc2c1` [Example 60, (1S,2S)-N1-(7-Chloro-quinolin-4-yl)-N2-(benzyl)-cyclohexane-1,2-diamine hydrochloride (1:2)], the values for the IC50 (in experiment [1]; in the experiment on Plasmodium falciparum K1) were 0.0077 µg/mL and 0.0122 µg/mL, respectively. The Resistance index with Plasmodium falciparum K1 came out at 1.6. Further, the values for the inhibition in vivo at 10 mg/kg in the experiment on Plasmodium berghei (setting [2]) and in the experiment with Plasmodium berghei (setting [3]) were 67% and 87%, respectively.
Consider `Cl.Cl.Clc1ccc(CN[C@H]2CCCC[C@@H]2Nc2ccnc3cc(Cl)ccc23)cc1` [Example 61, (1S,2S)-N1-(7-Chloro-quinolin-4-yl)-N2-(4-chloro-benzyl)-cyclohexane-1,2-diamine dihydrochloride], for which the IC50 in experiment [1] is 0.0127 µg/mL; in the experiment on Plasmodium falciparum K1, 0.0112 µg/mL. Besides, the Resistance index in the experiment with Plasmodium falciparum K1 worked out at 0.9. Also, the inhibition in vivo at 10 mg/kg in the experiment with Plasmodium berghei (setting [2]) and with Plasmodium berghei (setting [3]) was 99.6% each time.
With `Cl.Cl.Clc1ccc(CN[C@H]2CCCC[C@@H]2Nc2ccnc3cc(Cl)ccc23)c(Cl)c1` [Example 62, (1S,2S)-N1-(7-Chloro-quinolin-4-yl)-N2-(2,4-dichloro-benzyl)-cyclohexane-1,2-diamine dihydrochloride], the IC50 in experiment [1] was 0.0508 µg/mL; in the experiment with Plasmodium falciparum K1, 0.0642 µg/mL. Besides, the Resistance index in the experiment on Plasmodium falciparum K1 was 1.3. In addition, the inhibition in vivo at 10 mg/kg with Plasmodium berghei (setting [2]) and in the experiment with Plasmodium berghei (setting [3]) was 99.8% in each case.
Consider `Cl.Cl.Clc1ccc2c(N[C@H]3CCCC[C@@H]3NCc3ccc(Cl)c(Cl)c3)ccnc2c1` [Example 63, (1S,2S)-N1-(7-Chloro-quinolin-4-yl)-N2-(3,4-dichloro-benzyl)-cyclohexane-1,2-diamine dihydrochloride], for which the IC50 in experiment [1] worked out at 0.0101 µg/mL; with Plasmodium falciparum K1, 0.0146 µg/mL. In addition, the Resistance index in the experiment on Plasmodium falciparum K1 worked out at 1.4. Also, the inhibition in vivo at 10 mg/kg with Plasmodium berghei (setting [2]) and with Plasmodium berghei (setting [3]) was 99.9% each time.

Values taken from patent publication US5948791A, “Quinoline derivatives for treating malaria” (Hoffmann-La Roche Inc., priority 1995, dated 1999).
